pKi: −log10 of the molar value.
Legend:
[1] = system: Rattus norvegicus; assay: Percent inhibition of Urea nitrogen by the compound given as ratio of UN value in treated to vehicle treated ones after intraperitoneal administration of 1 mg/kg of compound to rats(vehicle 154.2+/-5.0); format: functional; conditions: ip
[2] = system: Rattus norvegicus; assay: Ratio of urinary excretion value (Na+ concentration) in treated rats to that in control rats, at a peroral dose of 1.6 mg/Kg; format: functional, Urine
[3] = system: Rattus norvegicus; assay: Ratio of urinary excretion value (Na+ concentration) in treated rats to that in control rats, at a peroral dose of 25 mg/Kg; format: functional, Urine
[4] = system: Rattus norvegicus; assay: Ratio of sodium ion/potassium ion concentration in treated rats to that in control rats, at a peroral dose of 1.6 mg/Kg; format: functional
[5] = system: Rattus norvegicus; assay: Serum creatinine concentration measured after intraperitoneal administration of 1 mg/kg of compound to rats(vehicle 4.70+/-0.17); format: functional
[6] = system: Rattus norvegicus; assay: Oral diuretic activity was measured after oral administration of 25 mg/kg to rats(control volume is 0.91+/-0.04); format: functional, Urine
[7] = system: Rattus norvegicus; assay: Urea nitrogen concentration measured after intraperitoneal administration of 1 mg/kg of compound to rats(vehicle 154.2+/-5.0); format: functional
[8] = system: Rattus norvegicus; assay: Ratio of sodium ion/potassium ion concentration in treated rats to that in control rats, at a peroral dose of 25 mg/Kg; format: functional
[9] = system: Rattus norvegicus; assay: Percent inhibition of serum creatinine by the compound given as ratio of Cr value in treated to vehicle treated ones after intraperitoneal administration of 1 mg/kg of compound to rats(vehicle 4.70+/-0.17); format: functional; conditions: ip
[10] = molecular target: T1, Adenosine A2 receptor (Rattus norvegicus, UniProt P29276+P30543)
Description: Binding affinity towards adenosine A2 receptor in rat striatal membranes using N-[3H]-ethyladenosin-5''-uronamide as radioligand

[11] = molecular target: T2, Adenosine receptor A1 (Rattus norvegicus, UniProt P25099)
T2 sequence (P25099 whole entry): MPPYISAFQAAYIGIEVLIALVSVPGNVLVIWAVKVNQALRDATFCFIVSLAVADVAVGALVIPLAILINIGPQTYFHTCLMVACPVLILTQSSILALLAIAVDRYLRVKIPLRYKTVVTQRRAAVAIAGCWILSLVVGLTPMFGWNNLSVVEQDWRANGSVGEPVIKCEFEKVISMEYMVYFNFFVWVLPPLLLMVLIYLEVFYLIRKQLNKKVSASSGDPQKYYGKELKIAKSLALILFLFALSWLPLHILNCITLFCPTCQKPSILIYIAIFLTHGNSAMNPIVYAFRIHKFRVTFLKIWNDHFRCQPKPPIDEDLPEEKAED
Description: Binding affinity towards adenosine A1 receptor in rat cortical membranes using N6-[3H]cyclohexyladenosine as radioligand

[12] = molecular target: T3, Adenosine receptor A1 (Cavia porcellus, UniProt P47745)
T3 sequence (P47745 whole entry): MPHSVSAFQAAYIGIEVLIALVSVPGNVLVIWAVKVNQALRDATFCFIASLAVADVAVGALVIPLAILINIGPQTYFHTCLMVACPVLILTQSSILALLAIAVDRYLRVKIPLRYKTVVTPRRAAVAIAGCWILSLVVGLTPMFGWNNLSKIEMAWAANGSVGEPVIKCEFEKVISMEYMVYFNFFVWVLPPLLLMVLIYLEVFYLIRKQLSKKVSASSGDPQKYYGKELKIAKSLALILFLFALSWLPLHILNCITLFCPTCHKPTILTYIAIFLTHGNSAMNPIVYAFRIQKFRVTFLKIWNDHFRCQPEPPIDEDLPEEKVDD
Description: Binding affinity against adenosine A1 receptor in guinea pig forebrain membranes using N6-[3H]cyclohexyladenosine as radioligand

[13] = system: Rattus norvegicus; assay: Effect on urinary excretion potassium and sodium after oral administration of 25 mg/kg to rats(potassium and sodium excretion in control rat is 0.186+/-0.020); format: functional, Urine
[14] = system: Rattus norvegicus; assay: Effect on urinary excretion potassium and sodium after oral administration of 1.6 mg/kg to rats(potassium and sodium excretion in control rat is 0.173+/-0.015); format: functional, Urine
[15] = system: Rattus norvegicus; assay: Ratio of urinary excretion value (urinary volume) in treated rats to that in control rats, at a peroral dose of 1.6 mg/Kg; format: functional, Urine
[16] = system: Rattus norvegicus; assay: Ratio of urinary excretion value (urinary volume) in treated rats to that in control rats, at a peroral dose of 6.25 mg/Kg; format: functional, Urine
[17] = system: Rattus norvegicus; assay: Ratio of urinary excretion value (urinary volume) in treated rats to that in control rats, at a peroral dose of 25 mg/Kg; format: functional, Urine
[18] = molecular target: T1, Adenosine A2 receptor; remark: listed apart in the source
[19] = system: Rattus norvegicus; assay: Oral diuretic activity was measured after oral administration of 1.6 mg/kg to rats(control volume is 0.93+/-0.03); format: functional, Urine
[20] = system: Rattus norvegicus; assay: Ratio of urinary excretion value (Na+ concentration) in treated rats to that in control rats, at a peroral dose of 6.25 mg/Kg; format: functional, Urine
[21] = system: Rattus norvegicus; assay: Oral diuretic activity was measured after oral administration of 25 mg/kg to rats(control volume is 1.00+/-0.09); format: functional, Urine
[22] = system: Rattus norvegicus; assay: Serum creatinine concentration measured after intraperitoneal administration of 1 mg/kg of compound to rats(vehicle 5.07+/-0.33); format: functional; conditions: 1 mg/kg
[23] = system: Rattus norvegicus; assay: Urea nitrogen concentration measured after intraperitoneal administration of 1 mg/kg of compound to rats(vehicle 195.8+/-14.4); format: functional; conditions: 1 mg/kg
[24] = system: Rattus norvegicus; assay: Effect on urinary excretion potassium and sodium after oral administration of 25 mg/kg to rats(potassium and sodium excretion in control rat is 0.180+/-0.024); format: functional, Urine
[25] = system: Rattus norvegicus; assay: Percent inhibition of Urea nitrogen by the compound given as ratio of UN value in treated to vehicle treated ones after intraperitoneal administration of 1 mg/kg of compound to rats(vehicle 195.8+/-14.4); format: functional; conditions: 1 mg/kg
[26] = species: Rattus norvegicus; conditions: dose 1 mg/kg, route intraperitoneal
[27] = system: Rattus norvegicus; assay: Percent inhibition of Urea nitrogen by the compound given as ratio of UN value in treated to vehicle treated ones after intraperitoneal administration of 1 mg/kg of compound to rats(vehicle 137.4+/-16.5); format: functional; conditions: ip
[28] = system: Rattus norvegicus; assay: Serum creatinine concentration measured after intraperitoneal administration of 10 mg/kg of compound to rats(vehicle 4.21+/-0.21); format: functional
[29] = system: Rattus norvegicus; assay: Serum creatinine concentration measured after intraperitoneal administration of 1 mg/kg of compound to rats(vehicle 3.75+/-0.34); format: functional
[30] = system: Rattus norvegicus; assay: Urea nitrogen concentration measured after intraperitoneal administration of 1 mg/kg of compound to rats(vehicle 137.4+/-16.5); format: functional
[31] = system: Rattus norvegicus; assay: Effect on urinary excretion potassium and sodium after oral administration of 25 mg/kg to rats(potassium and sodium excretion in control rat is 0.172+/-0.015); format: functional, Urine
[32] = system: Rattus norvegicus; assay: Percent inhibition of serum creatinine by the compound given as ratio of Cr value in treated to vehicle treated ones after intraperitoneal administration of 10 mg/kg of compound to rats(vehicle 4.21+/-0.21); format: functional; conditions: ip
[33] = system: Rattus norvegicus; assay: Oral diuretic activity was measured after oral administration of 25 mg/kg to rats(control volume is 0.74+/-0.07); format: functional, Urine
[34] = system: Rattus norvegicus; assay: Percent inhibition of serum creatinine by the compound given as ratio of Cr value in treated to vehicle treated ones after intraperitoneal administration of 1 mg/kg of compound to rats(vehicle 3.75+/-0.34); format: functional; conditions: ip
[35] = system: Rattus norvegicus; assay: Percent inhibition of Urea nitrogen by the compound given as ratio of UN value in treated to vehicle treated ones after intraperitoneal administration of 10 mg/kg of compound to rats(vehicle 144.1+/-6.1); format: functional; conditions: ip
[36] = system: Rattus norvegicus; assay: Urea nitrogen concentration measured after intraperitoneal administration of 10 mg/kg of compound to rats(vehicle 144.1+/-6.1); format: functional
[37] = system: Rattus norvegicus; assay: Effect on urinary excretion potassium and sodium after oral administration of 1.5 mg/kg to rats(potassium and sodium excretion in control rat is 0.165+/-0.008); format: functional, Urine
[38] = system: Rattus norvegicus; assay: Ratio of sodium ion/potassium ion concentration in treated rats to that in control rats, at a peroral dose of 1.5 mg/Kg; format: functional
[39] = system: Rattus norvegicus; assay: Urea nitrogen concentration measured after intraperitoneal administration of 1 mg/kg of compound to rats(vehicle 156.1+/-8.4); format: functional
[40] = system: Rattus norvegicus; assay: Ratio of urinary excretion value (urinary volume) in treated rats to that in control rats, at a peroral dose of 1.5 mg/Kg; format: functional, Urine
[41] = system: Rattus norvegicus; assay: Ratio of urinary excretion value (Na+ concentration) in treated rats to that in control rats, at a peroral dose of 1.5 mg/Kg; format: functional, Urine
[42] = system: Rattus norvegicus; assay: Effect on urinary excretion potassium and sodium after oral administration of 25 mg/kg to rats(potassium and sodium excretion in control rat is […]+/-[…]); format: functional, Urine
[43] = system: Rattus norvegicus; assay: Serum creatinine concentration measured after intraperitoneal administration of 0.1 mg/kg of compound to rats(vehicle 2.9+/-0.28); format: functional
[44] = system: Rattus norvegicus; assay: Urea nitrogen concentration measured after intraperitoneal administration of 0.1 mg/kg of compound to rats(vehicle 93.4+/-10); format: functional
[45] = system: Rattus norvegicus; assay: Oral diuretic activity was measured after oral administration of 25 mg/kg to rats(control volume is 0.74+/-0.05); format: functional, Urine
[46] = system: Rattus norvegicus; assay: Oral diuretic activity was measured after oral administration of 1.5 mg/kg to rats(control volume is 1.01+/-0.08); format: functional, Urine
[47] = system: Rattus norvegicus; assay: Serum creatinine concentration measured after intraperitoneal administration of 1 mg/kg of compound to rats(vehicle 4.19+/-0.2); format: functional

## FC(F)(F)c1nnc2c(NC3CCCC3)nc3ccc(Cl)cc3n12
[1]
  inhibition in vivo at 1 mg/kg: 42%
[2]
  T/C: 1.22
[3]
  T/C: 1.74
[4]
  Na+/K+: 0.98
[5]
  Cr: 2.58 mg/dL
[6]
  Urine volume: 1.74 ml 6hr-1 100g-1
[7]
  UN: 88.7 mg/dL
[8]
  Na+/K+: 1.31
[9]
  inhibition in vivo at 1 mg/kg: 45%
[10]
  Ki: 2100 nM
[11]
  pKi: 8.26
[12]
  pKi: 7.44
[13]
  Na: 0.323 m equiv 6hr-1 100g-1
[14]
  Na: 0.212 m equiv 6hr-1 100g-1
[15]
  T/C: 1.15
[16]
  T/C: 2.17
[17]
  T/C: 1.91
[18]
  Ki: 710 nM
[19]
  Urine volume: 1.07 ml 6hr-1 100g-1
[20]
  T/C: 1.82

## CCCn1c(=O)c2nc(C3CC4CCC3C4)[nH]c2n(CCC)c1=O (stereo in doubt; 20)
[3]
  T/C: 2.06
[21]
  Urine volume: 2.13 ml 6hr-1 100g-1
[22]
  Cr: 2.54 mg/dL
[23]
  UN: 98.8 mg/dL
[8]
  Na+/K+: 1.63
[24]
  Na: 0.372 m equiv 6hr-1 100g-1
[25]
  Inhibition: 49%
[26]
  Inhibition: 50%
[16]
  T/C: 1.12
[17]
  T/C: 2.13
[18]
  pKi: 6.54
[20]
  T/C: 1.27

## CCCn1c(=O)c2c(nc(C3CCCC3)n2C)n(CCC)c1=O
[27]
  inhibition in vivo at 1 mg/kg: 27%
[28]
  Cr: 3.07 mg/dL
[3]
  T/C: 1.07
[8]
  Na+/K+: 1
[29]
  Cr: 2.62 mg/dL
[12]
  pKi: 5.41
[30]
  UN: 99.9 mg/dL
[31]
  Na: 0.184 m equiv 6hr-1 100g-1
[32]
  inhibition in vivo at 10 mg/kg: 26%
[33]
  Urine volume: 1.07 ml 6hr-1 100g-1
[34]
  inhibition in vivo at 1 mg/kg: 30%
[35]
  inhibition in vivo at 10 mg/kg: 25%
[36]
  UN: 107.9 mg/dL
[17]
  T/C: 1.45
[18]
  Ki: > 10000 nM

## CCCn1c(=O)[nH]c(=O)c2[nH]c(C(C3CC3)C3CC3)nc21
[37]
  Na: 0.202 m equiv 6hr-1 100g-1
[38]
  Na+/K+: 1.13
[3]
  T/C: 2.16
[39]
  UN: 119.1 mg/dL
[40]
  T/C: 1.12
[41]
  T/C: 1.22
[42]
  Na: 0.328 m equiv 6hr-1 100g-1
[8]
  Na+/K+: 1.4
[43]
  Cr: 2.96 mg/dL
[44]
  UN: 104.2 mg/dL
[45]
  Urine volume: 1.85 ml 6hr-1 100g-1
[46]
  Urine volume: 1.13 ml 6hr-1 100g-1
[47]
  Cr: 3 mg/dL
[16]
  T/C: 1.42
[17]
  T/C: 2.5
[18]
  Ki: > 100000 nM
[20]
  T/C: 1.69

From ChEMBL document CHEMBL1125524, “Adenosine A1 antagonists. 2. Structure-activity relationships on diuretic activities and protective effects against acute renal failure” (J Med Chem, 1992)
